The text below walks through data of the Kinase Knowledgebase extract (Sharma et al. 2016).

pIC50: −log10 of the molar value.

Sequence of EGFR (P00533 whole entry, looked up): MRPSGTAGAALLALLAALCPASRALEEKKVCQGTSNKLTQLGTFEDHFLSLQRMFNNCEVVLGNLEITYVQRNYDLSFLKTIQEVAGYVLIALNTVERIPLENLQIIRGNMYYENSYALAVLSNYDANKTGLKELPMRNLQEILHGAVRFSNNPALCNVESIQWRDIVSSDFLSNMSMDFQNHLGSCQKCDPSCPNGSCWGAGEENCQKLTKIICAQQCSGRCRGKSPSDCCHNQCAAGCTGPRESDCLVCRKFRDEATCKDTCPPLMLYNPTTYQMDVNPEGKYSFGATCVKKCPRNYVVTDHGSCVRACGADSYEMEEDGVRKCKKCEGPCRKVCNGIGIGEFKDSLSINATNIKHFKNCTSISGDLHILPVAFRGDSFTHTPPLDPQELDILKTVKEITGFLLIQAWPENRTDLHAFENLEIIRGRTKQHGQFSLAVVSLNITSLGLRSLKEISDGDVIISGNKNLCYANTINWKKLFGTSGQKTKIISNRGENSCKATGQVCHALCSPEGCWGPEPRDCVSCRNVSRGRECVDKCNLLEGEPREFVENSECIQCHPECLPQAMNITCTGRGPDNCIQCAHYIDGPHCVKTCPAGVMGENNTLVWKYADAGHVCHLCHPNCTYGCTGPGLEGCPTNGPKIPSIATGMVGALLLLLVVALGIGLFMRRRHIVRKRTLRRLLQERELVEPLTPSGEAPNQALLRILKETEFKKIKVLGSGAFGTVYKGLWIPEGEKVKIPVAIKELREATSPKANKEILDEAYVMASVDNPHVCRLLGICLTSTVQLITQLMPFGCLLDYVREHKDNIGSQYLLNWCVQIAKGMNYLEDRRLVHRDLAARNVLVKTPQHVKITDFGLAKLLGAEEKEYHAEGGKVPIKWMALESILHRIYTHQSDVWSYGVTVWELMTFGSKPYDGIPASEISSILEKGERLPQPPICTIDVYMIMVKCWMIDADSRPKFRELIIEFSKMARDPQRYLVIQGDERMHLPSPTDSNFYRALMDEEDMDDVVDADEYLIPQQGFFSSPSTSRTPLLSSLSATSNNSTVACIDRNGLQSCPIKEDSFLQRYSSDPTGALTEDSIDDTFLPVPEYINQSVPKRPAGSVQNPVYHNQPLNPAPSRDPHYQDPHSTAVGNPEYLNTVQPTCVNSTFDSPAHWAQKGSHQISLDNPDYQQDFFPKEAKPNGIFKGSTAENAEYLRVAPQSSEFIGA

The first experiment addresses CDK2 (UniProt P24941). The experiment can be described thus: Enzyme Assay.
The molecule `O=C1Nc2cccc(C3CCNCC3)c2/C1=C/c1[nH]cc2c1CCNC2=O` gave a pIC50 of 7.22.
Same read-out and setting: as for `Cc1nc[nH]c1/C=C1\C(=O)Nc2cccc(-c3ccncc3)c21`, the figure is 7.52; as for `O=C1Nc2cccc(C3CCNCC3)c2/C1=C/c1cc2cc(OCCN3CCOCC3)ccc2[nH]1`, 5.71.
Take `Cc1c(C(=O)N2CCCCC2)c[nH]c1/C=C1\C(=O)Nc2cccc(C3CCNCC3)c21`: the negative-log IC50 (pIC50) is 7.70.
As to `Cc1nc[nH]c1/C=C1\C(=O)Nc2cccc(C3CCNCC3)c21`, the pIC50 is 8.00.
`Cc1c(C(=O)N2CCOCC2)c[nH]c1/C=C1\C(=O)Nc2cccc(C3CCNCC3)c21`: the pIC50 was 7.70.
As for `O=C1Nc2cccc(C3CCNCC3)c2/C1=C/c1[nH]cc2c1CCOC2=O`, the negative logarithm of the IC50 (pIC50) was 8.05.
Turning to `O=C1Nc2cccc(-c3ccncc3)c2/C1=C/c1[nH]cc2c1CCOC2=O`, the negative logarithm of the IC50 (pIC50) is 7.10.
In turn, `CN1CCc2c(c[nH]c2/C=C2\C(=O)Nc3cccc(C4CCNCC4)c32)C1=O` had a pIC50 of 6.59.
Same read-out and setting: the result for `Cc1c(C(=O)N2CCCCC2)c[nH]c1/C=C1\C(=O)Nc2cccc(-c3ccncc3)c21` reads 6.12.

A further experiment has as its target EGFR (UniProt P00533).
Test: not given
The molecule `CCc1cc(CCC(=O)O)c(/C=C2\C(=O)Nc3cccc(C4CCNCC4)c32)[nH]1` showed a pIC50 below 4.70.
Regarding `Cc1cc(C)c(/C=C2\C(=O)Nc3cccc(-c4ccncc4)c32)[nH]1`, the pIC50 is below 4.70.
Same read-out and setting: as for `CCN(CC)CCNC(=O)c1c(C)[nH]c(/C=C2\C(=O)Nc3cccc(C4CCNCC4)c32)c1C`, the figure is below 4.70.
On to `Cc1[nH]c(/C=C2\C(=O)Nc3cccc(-c4ccncc4)c32)c(C)c1CC(=O)O`, for which the negative logarithm of the IC50 (pIC50) was below 4.70.
As for `Cc1cc(C(=O)O)[nH]c1/C=C1\C(=O)Nc2cccc(-c3ccncc3)c21`, the pIC50 is below 4.70.
`O=C1Nc2cccc(C3CCNCC3)c2/C1=C/c1ccc(N2CCOCC2)cc1` showed a pIC50 below 4.70.
As to `CCOC(=O)c1c(C)[nH]c(/C=C2\C(=O)Nc3cccc(-c4cncnc4)c32)c1CCCN1CCN(C)CC1`, the pIC50 was below 4.70.
On to `CCOC(=O)c1c(C)[nH]c(/C=C2\C(=O)Nc3cccc(-c4ccccn4)c32)c1CCCN1CCN(C)CC1`, for which the pIC50 was below 4.70.
Molecule `Cc1cc(C(=O)O)c(/C=C2\C(=O)Nc3cccc(-c4ccncc4)c32)[nH]1` showed a pIC50 below 4.70.
In turn, `Cc1cc(CCC(=O)O)c(/C=C2\C(=O)Nc3cccc(-c4ccncc4)c32)[nH]1` showed a pIC50 below 4.70.
In the case of `CCOC(=O)c1[nH]c(/C=C2\C(=O)Nc3cccc(C4CCNCC4)c32)c2c1CCCC2`, the pIC50 was 4.83.
The molecule `Cc1nc[nH]c1/C=C1\C(=O)Nc2cccc(-c3ccncc3)c21` gave a pIC50 below 4.70.
`O=C1Nc2cccc(C3CCNCC3)c2/C1=C/c1cc2c([nH]1)CCCC2` had a pIC50 below 4.70.
For the molecule `Cc1[nH]c(/C=C2\C(=O)Nc3cccc(C4CCNCC4)c32)c(C)c1CCC(=O)O`, the pIC50 is below 4.70.
The same measure, in the same setting: the result for `Cc1[nH]c(/C=C2\C(=O)Nc3cccc(-c4ccc(N)nc4)c32)c(C)c1C(=O)N1CCN(C)CC1` reads below 4.70; that for `Cc1[nH]c(/C=C2\C(=O)Nc3cccc(-c4ccncc4)c32)c(C)c1C(=O)N1CCN(C)CC1`, below 4.70; that for `O=C(O)CCc1c(/C=C2\C(=O)Nc3cccc(-c4ccncc4)c32)[nH]c2c1CCCC2`, below 4.70.
Turning to `O=C1Nc2cccc(C3CCNCC3)c2/C1=C/c1cc2cc(OCCN3CCOCC3)ccc2[nH]1`, the pIC50 was 4.72.
The same measure, in the same setting: as for `Cc1[nH]c(/C=C2\C(=O)Nc3cccc(-c4ccncc4)c32)c(C)c1CCC(=O)O`, the figure is below 4.70; as for `CCOC(=O)c1c(C)[nH]c(/C=C2\C(=O)Nc3cccc(-c4cncc(C(=O)O)c4)c32)c1CCCN1CCN(C)CC1`, below 4.70.
On the same count and under the same terms, as for `O=C1Nc2cccc(-c3ccncc3)c2/C1=C/c1cc2cc(OCCN3CCOCC3)ccc2[nH]1`, the figure is 4.75; as for `O=C1Nc2cccc(-c3ccncc3)c2/C1=C/c1cc2ccccc2[nH]1`, 4.79.
The molecule `O=C1Nc2cccc(C3CCNCC3)c2/C1=C/c1[nH]cc(C(=O)O)c1CCO` gave a pIC50 below 4.70.
Take `Cc1c(C(=O)N2CCCCC2)c[nH]c1/C=C1\C(=O)Nc2cccc(C3CCNCC3)c21`: the pIC50 was below 4.70.
Still for that read-out and setting: as for `CCOC(=O)c1c(C)[nH]c(/C=C2\C(=O)Nc3cccc(-c4nccs4)c32)c1CCCN1CCN(C)CC1`, the figure is below 4.70; as for `Cc1nc[nH]c1/C=C1\C(=O)Nc2cccc(C3CCNCC3)c21`, below 4.70; as for `Cc1ccc(/C=C2\C(=O)Nc3cccc(C4CCNCC4)c32)s1`, below 4.70.
In turn, `CCOC(=O)c1c(C)[nH]c(/C=C2\C(=O)Nc3cccc(-c4cccnc4)c32)c1CCCN1CCN(C)CC1` gave a pIC50 below 4.70.
Still for that read-out and setting: the result for `CCN(CC)CCNC(=O)c1c(C)[nH]c(/C=C2\C(=O)Nc3cccc(-c4cncc(C(=O)O)c4)c32)c1C` reads below 4.70.
Same read-out and setting: as for `CCN(CC)CCNC(=O)c1c(C)[nH]c(/C=C2\C(=O)Nc3cccc(-c4ccncc4)c32)c1C`, the figure is below 4.70.
As to `Cc1cc(C(=O)O)c(/C=C2\C(=O)Nc3cccc(C4CCNCC4)c32)[nH]1`, the pIC50 is below 4.70.
For `CCOC(=O)c1c(C)[nH]c(/C=C2\C(=O)Nc3cccc(-c4ccncc4)c32)c1CCC(=O)O`, the pIC50 was below 4.70.
`Cc1[nH]c(/C=C2\C(=O)Nc3cccc(-c4nccs4)c32)c(C)c1C(=O)N1CCN(C)CC1` showed a pIC50 below 4.70.
Turning to `CCc1cc(CCC(=O)O)c(/C=C2\C(=O)Nc3cccc(-c4ccncc4)c32)[nH]1`, the pIC50 was below 4.70.
On the same count and under the same terms, as for `Cc1c(C(=O)N2CCOCC2)c[nH]c1/C=C1\C(=O)Nc2cccc(C3CCNCC3)c21`, the figure is below 4.70.
`Cc1[nH]c(/C=C2\C(=O)Nc3cccc(C4CCNCC4)c32)c(C)c1CC(=O)O` gave a pIC50 below 4.70.
For the molecule `O=C1Nc2cccc(C3CCNCC3)c2/C1=C/c1cc2ccccc2[nH]1`, the pIC50 was below 4.70.
The molecule `O=C1Nc2cccc(-c3ccncc3)c2/C1=C/c1[nH]c2c(c1CCCN1CCOCC1)CCCC2` showed a negative logarithm of the IC50 (pIC50) below 4.70.
The molecule `Cc1[nH]c(/C=C2\C(=O)Nc3cccc(-c4ccccn4)c32)c(C)c1C(=O)N1CCN(C)CC1` had a pIC50 below 4.70.
Molecule `O=C1Nc2cccc(C3CCNCC3)c2/C1=C/c1[nH]cc2c1CCOC2=O` gave a pIC50 below 4.70.
Take `O=C1Nc2cccc(-c3ccncc3)c2/C1=C/c1[nH]cc2c1CCOC2=O`: the pIC50 is below 4.70.
The molecule `Cc1[nH]c(/C=C2\C(=O)Nc3cccc(-c4cncnc4)c32)c(C)c1C(=O)N1CCN(C)CC1` gave a pIC50 below 4.70.
Take `Cc1[nH]c(/C=C2\C(=O)Nc3cccc(-c4cccnc4)c32)c(C)c1C(=O)N1CCN(C)CC1`: the pIC50 was below 4.70.
In turn, `CCOC(=O)c1c(C)[nH]c(/C=C2\C(=O)Nc3cccc(-c4ccc(N)nc4)c32)c1CCCN1CCN(C)CC1` had a pIC50 below 4.70.
With `O=C1Nc2cccc(C3CCNCC3)c2/C1=C/c1[nH]c2c(c1CCCN1CCOCC1)CCCC2`, the pIC50 was below 4.70.
As to `Cc1cc(C(=O)N2CCN(C)CC2)[nH]c1/C=C1\C(=O)Nc2cccc(C3CCNCC3)c21`, the pIC50 was below 4.70.
On to `Cc1c(C(=O)N2CCCCC2)c[nH]c1/C=C1\C(=O)Nc2cccc(-c3ccncc3)c21`, for which the negative logarithm of the IC50 (pIC50) is below 4.70.
Molecule `Cc1cc(C(=O)O)[nH]c1/C=C1\C(=O)Nc2cccc(C3CCNCC3)c21` had a negative-log IC50 (pIC50) below 4.70.
Molecule `Cc1[nH]c(/C=C2\C(=O)Nc3cccc(-c4cncc(C(=O)O)c4)c32)c(C)c1C(=O)N1CCN(C)CC1` had a pIC50 below 4.70.
The same measure, in the same setting: the result for `CCOC(=O)c1[nH]c(/C=C2\C(=O)Nc3cccc(C4CCNCC4)c32)c(CCC(=O)O)c1C` reads below 4.70.
On the same count and under the same terms, the result for `Cc1[nH]c(/C=C2\C(=O)Nc3cccc(C4CCNCC4)c32)c(-c2ccccc2)c1C(=O)Nc1ccncc1` reads below 4.70.

Usually pIC50 stands for the IC50 on a negative log10 scale, so that one unit is a factor of ten. Lower therefore signals a high IC50.
